From PubChem BioAssay (NCI) come the findings set out here.

Where “and” joins values, the source holds several entries; their conditions need not be identical. Identical values can stand only once.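 All cell lines were grown in 96-well plates and treated with compound for 48 hours. GI50: concentration for 50% inhibition of growth. TGI: total growth inhibition.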

Among the test systems are A498 renal; SK-MEL-5 melanoma; K-562 leukemia; DU-145 prostate; MCF7 breast; MDA-MB-435; HCC-2998 colon; OVCAR-4 ovarian.
Holding throughout (assay): NCI tumour cell line growth inhibition, 48 h

Turning to `O=C1NC(=O)[C@@]2(CC[C@@H](O)C2)c2ccncc21`, the TGI in the experiment with A498 renal, with SK-MEL-5 melanoma, with K-562 leukemia, in the experiment on DU-145 prostate, in the experiment on MCF7 breast and with MDA-MB-435 was greater than 100 µM each time. For the same molecule, the TGI with HCC-2998 colon and in the experiment with OVCAR-4 ovarian was greater than 100 µM each time.
With `CC/C=C\C[C@H](O)C/C=C1/C(=O)C=C[C@@H]1C/C=C\CCCC(=O)OC(C)C`, the GI50 in the experiment on A498 renal was 3 µM; in the experiment on SK-MEL-5 melanoma, 1.17 µM; in the experiment with K-562 leukemia, 0.391 µM; with DU-145 prostate, 3.05 µM; with MCF7 breast, 0.372 µM; in the experiment with MDA-MB-435, 0.572 µM. In addition, the GI50 is 1.87 µM with HCC-2998 colon and 2.92 µM in the experiment on OVCAR-4 ovarian. Moreover, the TGI in the experiment on A498 renal is 8.12 µM; with SK-MEL-5 melanoma, 2.51 µM; in the experiment with K-562 leukemia, 20.7 µM; in the experiment on DU-145 prostate, 11.9 µM; in the experiment with MCF7 breast, 2.22 µM; with MDA-MB-435, 2.7 µM. The values for the TGI with HCC-2998 colon and in the experiment with OVCAR-4 ovarian were 3.38 µM and 14.4 µM, respectively.
`C=C1C(=O)O[C@H]2[C@H]1CC/C(COC(=O)c1cn(C)c3ccccc13)=C\CC[C@@]1(C)O[C@@H]21`: the GI50 in the experiment on A498 renal was 1.59 µM; in the experiment on SK-MEL-5 melanoma, 1.42 µM; with K-562 leukemia it was 0.4 µM; in the experiment on DU-145 prostate it was 1.01 µM; in the experiment on MCF7 breast it was 0.4 µM; in the experiment on MDA-MB-435, 1.34 µM. Further, the GI50 was 1.81 µM in the experiment on HCC-2998 colon and 1.14 µM in the experiment on OVCAR-4 ovarian. For the same molecule, the TGI was determined as 3.05 µM with A498 renal; 2.77 µM in the experiment with SK-MEL-5 melanoma; 5.13 µM with K-562 leukemia; 2.2 µM in the experiment on DU-145 prostate; 1.98 µM with MCF7 breast; 3.34 µM with MDA-MB-435. In addition, the TGI is 3.8 µM in the experiment with HCC-2998 colon and 3.04 µM in the experiment on OVCAR-4 ovarian.
Regarding `COc1cccc(OC(=O)c2ccc(C(F)(F)F)nc2Nc2c(C)cccc2Cl)c1`, the GI50 with A498 renal is 15 µM; with SK-MEL-5 melanoma, 33.3 µM; with K-562 leukemia, 36.5 µM; in the experiment with DU-145 prostate, 32.1 µM; in the experiment on MCF7 breast, 15.8 µM; with MDA-MB-435, 35 µM. Besides, the GI50 with HCC-2998 colon is 4.63 µM; with OVCAR-4 ovarian, 13.8 µM. For the same molecule, the TGI is 41.3 µM with A498 renal; greater than 100 µM with SK-MEL-5 melanoma; greater than 100 µM in the experiment on K-562 leukemia; greater than 100 µM in the experiment with DU-145 prostate; 81.2 µM with MCF7 breast; greater than 100 µM in the experiment on MDA-MB-435. The values for the TGI in the experiment with HCC-2998 colon and with OVCAR-4 ovarian were 32.3 µM and 30.9 µM, respectively.
Regarding `COc1cccc(-n2ncc3c(N/N=C/c4ccc(C)cc4)ncnc32)c1`, the GI50 in the experiment with A498 renal was greater than 5.43 µM; in the experiment with SK-MEL-5 melanoma it was greater than 25 µM; with K-562 leukemia, greater than 25 µM; in the experiment with DU-145 prostate, greater than 25 µM; in the experiment with MCF7 breast, 7.2 µM; in the experiment on MDA-MB-435 it was greater than 22.4 µM. Also, the GI50 in the experiment on HCC-2998 colon and with OVCAR-4 ovarian was greater than 25 µM throughout. The TGI with A498 renal, in the experiment on SK-MEL-5 melanoma, in the experiment on K-562 leukemia, with DU-145 prostate, in the experiment with MCF7 breast and in the experiment on MDA-MB-435 was greater than 25 µM in each case. Besides, the TGI in the experiment on HCC-2998 colon and in the experiment on OVCAR-4 ovarian was greater than 25 µM in each case.
As for `CN(C)c1ccc(C(=N)c2ccc(N(C)C)cc2)cc1`, the TGI in the experiment on A498 renal was 7.45 µM and 4.58 µM; in the experiment with SK-MEL-5 melanoma, 10.9 µM and 13.2 µM; with K-562 leukemia it was 64.9 µM; in the experiment with DU-145 prostate, greater than 100 µM; in the experiment on MCF7 breast, 32.3 µM and 38.3 µM; in the experiment on MDA-MB-435, 3.19 µM and 9.02 µM. Moreover, the TGI is 33.6 µM and 32.6 µM in the experiment on HCC-2998 colon; greater than 100 µM in the experiment on OVCAR-4 ovarian. Besides, the GI50 in the experiment with SK-MEL-5 melanoma was 2.74 µM and 2.92 µM; with K-562 leukemia, 0.553 µM; in the experiment on DU-145 prostate it was 4.14 µM and 5.93 µM; in the experiment with MCF7 breast, 1.34 µM and 1.29 µM; in the experiment on MDA-MB-435 it was 0.375 µM and 0.382 µM; in the experiment with HCC-2998 colon, 6.39 µM and 7.12 µM. The GI50 in the experiment with OVCAR-4 ovarian is 5.86 µM and 3.71 µM.
For the molecule `O=C1/C(=C/c2ccc(F)c(F)c2)CN(C(=O)C(Cl)Cl)C/C1=C\c1ccc(F)c(F)c1`, the GI50 in the experiment with A498 renal was 0.183 µM; with SK-MEL-5 melanoma it was 0.19 µM; with K-562 leukemia, 0.0235 µM; with DU-145 prostate, 0.312 µM; with MCF7 breast, 0.0424 µM; in the experiment on MDA-MB-435, 0.142 µM. Moreover, the figures for the GI50 in the experiment with HCC-2998 colon and with OVCAR-4 ovarian were 0.0934 µM and 0.233 µM, respectively. For the same molecule, the TGI is 0.55 µM in the experiment on A498 renal; 0.38 µM in the experiment with SK-MEL-5 melanoma; greater than 100 µM in the experiment on K-562 leukemia; 0.925 µM in the experiment with DU-145 prostate; 0.181 µM with MCF7 breast; 0.324 µM in the experiment on MDA-MB-435. In addition, the TGI in the experiment with HCC-2998 colon came out at 0.235 µM; with OVCAR-4 ovarian, 1.24 µM.
As for `CCCCC[C@H]1CC=C2C(=O)C=C[C@@H]2CC=CCCCC(=O)O[C@@H](CCCCC)CC=C2C(=O)C=C[C@@H]2CC=CCCCC(=O)O[C@@H](CCCCC)CC=C2C(=O)C=C[C@@H]2CC=CCCCC(=O)O1`, the GI50 is 0.75 µM in the experiment with A498 renal; 0.737 µM in the experiment with SK-MEL-5 melanoma; 0.317 µM in the experiment with K-562 leukemia; 0.353 µM with DU-145 prostate; 0.286 µM in the experiment with MCF7 breast; 0.183 µM in the experiment with MDA-MB-435. In addition, the GI50 was 0.264 µM in the experiment with HCC-2998 colon and 0.317 µM in the experiment with OVCAR-4 ovarian. In addition, the TGI with A498 renal is 2.41 µM; in the experiment on SK-MEL-5 melanoma, 1.87 µM; in the experiment on K-562 leukemia, greater than 8.75 µM; in the experiment with DU-145 prostate, 2.52 µM; in the experiment on MCF7 breast, 2.2 µM; in the experiment on MDA-MB-435 it was 0.526 µM. Further, the values for the TGI in the experiment on HCC-2998 colon and in the experiment with OVCAR-4 ovarian were 0.888 µM and greater than 8.75 µM, respectively.
On to `Oc1[nH]c(N=C2N=c3ccccc3=N2)c2ccccc12`, for which the GI50 was 6.31 µM with A498 renal; 8.57 µM in the experiment on SK-MEL-5 melanoma; 9.86 µM with K-562 leukemia; 10.3 µM in the experiment on DU-145 prostate; 2.65 µM in the experiment on MCF7 breast; 12.4 µM in the experiment on MDA-MB-435. Further, the GI50 was 17.4 µM in the experiment with HCC-2998 colon and 6.84 µM in the experiment on OVCAR-4 ovarian. For the same molecule, the TGI is 19.9 µM in the experiment on A498 renal; greater than 100 µM in the experiment on SK-MEL-5 melanoma; greater than 100 µM in the experiment with K-562 leukemia; 22.6 µM in the experiment with DU-145 prostate; 23.7 µM in the experiment with MCF7 breast; 69.4 µM with MDA-MB-435. Besides, the TGI in the experiment on HCC-2998 colon is greater than 100 µM; in the experiment on OVCAR-4 ovarian, 24 µM.
